Reference: ChEMBL document CHEMBL1201862, “PubChem BioAssay data set” (2004)
Active and inactive are the calls of the source.

How the values were obtained:
[1] = biological target: Induced myeloid leukemia cell differentiation protein Mcl-1 (Homo sapiens, UniProt Q07820); assay type: functional
Bcl-2-like protein 10 = Bcl-2-like protein 10 (Homo sapiens, UniProt Q9HD36); test: displacers of TR3 peptide from Bcl-B, primary screen, selectivity assay for Bfl-1 inhibitor project, biochemical, fluorescence polarization, FITC-TR3 peptide (AID 748);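 also: fluorescence polarization from a fluorescein-labelled TR3 peptide binding purified Bcl-B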
Chain of Bcl-2-like protein 10 (Q9HD36 whole entry): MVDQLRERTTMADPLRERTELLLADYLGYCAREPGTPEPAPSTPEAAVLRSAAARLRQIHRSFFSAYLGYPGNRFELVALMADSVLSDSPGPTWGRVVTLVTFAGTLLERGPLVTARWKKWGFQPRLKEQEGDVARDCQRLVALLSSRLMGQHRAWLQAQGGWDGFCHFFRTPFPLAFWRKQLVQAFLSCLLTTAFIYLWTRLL

[2] = Artemis endonuclease inhibitor potency, dose response, biochemical, fluorescence intensity (AID 720701); assay type: functional;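 also: Artemis endonuclease enzyme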
[3] = biological target: E3 ubiquitin-protein ligase UHRF1 (Homo sapiens, UniProt Q96T88); test: Counterscreen for inhibitors of 5-meCpG-binding domain protein 2 (MBD2): TRFRET-based biochemical high throughput dose response assay to identify inhibitors of binding of ubiquitin-like with PHD and ring finger domains 1 (UHRF1) to methylated oligonucleotide.
Chain of E3 ubiquitin-protein ligase UHRF1 (Q96T88 whole entry, the tested form may be a part): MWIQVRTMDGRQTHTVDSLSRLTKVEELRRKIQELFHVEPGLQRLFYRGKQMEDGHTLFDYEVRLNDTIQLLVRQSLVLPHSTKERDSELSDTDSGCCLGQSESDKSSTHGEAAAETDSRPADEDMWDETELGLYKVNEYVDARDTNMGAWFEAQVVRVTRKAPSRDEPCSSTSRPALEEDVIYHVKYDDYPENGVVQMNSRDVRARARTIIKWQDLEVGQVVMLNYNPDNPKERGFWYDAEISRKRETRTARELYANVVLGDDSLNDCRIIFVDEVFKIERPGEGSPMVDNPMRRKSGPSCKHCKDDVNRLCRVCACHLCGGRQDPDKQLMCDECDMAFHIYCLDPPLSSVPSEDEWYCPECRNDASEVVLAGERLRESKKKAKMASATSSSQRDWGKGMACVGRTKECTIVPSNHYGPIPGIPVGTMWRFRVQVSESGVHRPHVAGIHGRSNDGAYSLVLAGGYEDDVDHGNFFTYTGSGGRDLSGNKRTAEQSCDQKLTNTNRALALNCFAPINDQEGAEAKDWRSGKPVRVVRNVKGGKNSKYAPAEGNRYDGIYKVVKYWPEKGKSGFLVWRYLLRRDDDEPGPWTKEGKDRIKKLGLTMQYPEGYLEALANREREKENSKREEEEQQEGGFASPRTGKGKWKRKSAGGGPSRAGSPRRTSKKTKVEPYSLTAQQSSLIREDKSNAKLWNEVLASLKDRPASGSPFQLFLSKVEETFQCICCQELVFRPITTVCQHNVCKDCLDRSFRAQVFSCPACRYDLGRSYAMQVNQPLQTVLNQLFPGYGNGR

[4] = insulin promoter down-regulators in MIN6 cells, imaging, high-content screening, mouse beta cells (AID 1628); assay type: functional
[5] = cytotoxicity in MIN6 insulinoma cells, dose response, cytotoxicity control, cell-based, mouse insulinoma (AID 2122); assay type: functional;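 also: confirmatory high-throughput counterscreen run to flag cytotoxic compounds; mouse MIN-6 beta cells carrying an insulin promoter eGFP reporter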
INS1 = test: beta cell apoptosis inhibitors, cytokine rescue, dose response, luminescence, retest (AID 449756); assay type: functional, cell-based; conditions: Rattus norvegicus;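 also: cell death triggered by IL-1 beta plus TNF-alpha plus IFN-gamma mixture; protective hits raise ATP signal compared with cytokine alone wells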
Caspase-6 = Caspase-6 (Homo sapiens, UniProt P55212); test: human caspase-6 inhibitors, dose response, biochemical, VEID-R110 fluorescence, cherry-pick (AID 720632)
Chain of Caspase-6 (P55212 24-179 limits assumed): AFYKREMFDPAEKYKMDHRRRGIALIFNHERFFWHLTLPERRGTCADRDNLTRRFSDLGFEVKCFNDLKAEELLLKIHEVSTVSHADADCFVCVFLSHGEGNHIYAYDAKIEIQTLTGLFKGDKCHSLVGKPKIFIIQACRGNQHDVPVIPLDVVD
Chain of Caspase-6 (P55212 194-293 limits assumed): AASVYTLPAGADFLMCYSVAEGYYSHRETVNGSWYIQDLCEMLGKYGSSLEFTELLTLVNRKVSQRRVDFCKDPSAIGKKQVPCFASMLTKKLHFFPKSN

Aminopeptidase N = biological target: T1, Aminopeptidase N (Plasmodium falciparum FcB1/Columbia, UniProt O96935); test: P. falciparum M1AAP inhibitors, biochemical, fluorogenic H-Leu-NHMec substrate, 1536-well (AID 1445); parameters: species or system Plasmodium falciparum 3D7, 3D7
T1 sequence (O96935 whole entry): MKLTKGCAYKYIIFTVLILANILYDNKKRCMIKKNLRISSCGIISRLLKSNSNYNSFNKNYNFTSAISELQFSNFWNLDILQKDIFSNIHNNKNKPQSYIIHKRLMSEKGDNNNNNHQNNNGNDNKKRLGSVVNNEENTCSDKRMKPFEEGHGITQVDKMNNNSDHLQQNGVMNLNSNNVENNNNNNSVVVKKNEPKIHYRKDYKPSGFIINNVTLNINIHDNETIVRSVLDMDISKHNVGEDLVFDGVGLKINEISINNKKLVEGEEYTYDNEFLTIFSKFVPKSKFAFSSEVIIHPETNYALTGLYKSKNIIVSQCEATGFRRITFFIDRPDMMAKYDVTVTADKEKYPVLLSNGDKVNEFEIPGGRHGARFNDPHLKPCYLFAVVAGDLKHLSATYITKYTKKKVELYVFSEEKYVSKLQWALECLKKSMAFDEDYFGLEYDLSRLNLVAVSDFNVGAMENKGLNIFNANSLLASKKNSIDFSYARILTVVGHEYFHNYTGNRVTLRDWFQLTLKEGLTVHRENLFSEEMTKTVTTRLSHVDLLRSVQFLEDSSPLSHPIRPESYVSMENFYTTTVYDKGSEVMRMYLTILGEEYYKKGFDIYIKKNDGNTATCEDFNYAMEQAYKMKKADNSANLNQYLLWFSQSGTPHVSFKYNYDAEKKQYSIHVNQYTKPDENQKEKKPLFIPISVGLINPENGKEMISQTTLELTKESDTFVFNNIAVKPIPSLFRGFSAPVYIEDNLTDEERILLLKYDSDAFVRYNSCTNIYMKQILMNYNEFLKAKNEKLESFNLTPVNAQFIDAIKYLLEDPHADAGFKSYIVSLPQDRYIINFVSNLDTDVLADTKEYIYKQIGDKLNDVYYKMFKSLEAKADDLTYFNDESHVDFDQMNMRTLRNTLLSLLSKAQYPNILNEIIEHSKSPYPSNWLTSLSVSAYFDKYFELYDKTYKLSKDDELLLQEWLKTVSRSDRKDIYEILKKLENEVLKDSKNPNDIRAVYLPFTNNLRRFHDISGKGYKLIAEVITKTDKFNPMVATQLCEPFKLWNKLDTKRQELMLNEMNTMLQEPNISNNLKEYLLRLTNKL

[6] = biological target: E3 ubiquitin-protein ligase XIAP (Homo sapiens, UniProt P98170); test: Counter Screen using XIAP-Bir3 for Chemical Antagonists of Bir1/2 domains of IAP-family anti-apoptotic proteins. [Related pubchem assays (depositor defined):AID1018, AID1449, AID1514, AID1638, AID1749, AID1750, AID488957, AID488963]
Chain of E3 ubiquitin-protein ligase XIAP (P98170 whole entry): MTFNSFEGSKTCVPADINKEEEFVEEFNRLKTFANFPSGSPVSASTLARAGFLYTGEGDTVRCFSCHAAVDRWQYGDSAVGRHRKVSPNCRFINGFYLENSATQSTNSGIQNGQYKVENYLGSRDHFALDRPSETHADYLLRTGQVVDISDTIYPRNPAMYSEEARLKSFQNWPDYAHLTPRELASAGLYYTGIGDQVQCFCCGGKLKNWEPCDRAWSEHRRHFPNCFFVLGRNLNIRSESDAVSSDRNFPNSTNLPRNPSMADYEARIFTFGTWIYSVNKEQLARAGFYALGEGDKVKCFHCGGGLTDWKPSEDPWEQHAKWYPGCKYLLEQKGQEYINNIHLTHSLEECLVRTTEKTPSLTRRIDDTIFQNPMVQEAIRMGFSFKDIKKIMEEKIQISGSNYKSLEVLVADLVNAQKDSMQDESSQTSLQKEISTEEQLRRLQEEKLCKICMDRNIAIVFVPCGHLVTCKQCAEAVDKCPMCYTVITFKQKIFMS

Genome polyprotein = Genome polyprotein (dengue virus type 2, UniProt P29990); test: Dengue-2 NS5 methyltransferase inhibitors, primary screen, biochemical, confirmation dose response (AID 588689); assay type: functional
Chain of Genome polyprotein (P29990 2492-3391 limits assumed): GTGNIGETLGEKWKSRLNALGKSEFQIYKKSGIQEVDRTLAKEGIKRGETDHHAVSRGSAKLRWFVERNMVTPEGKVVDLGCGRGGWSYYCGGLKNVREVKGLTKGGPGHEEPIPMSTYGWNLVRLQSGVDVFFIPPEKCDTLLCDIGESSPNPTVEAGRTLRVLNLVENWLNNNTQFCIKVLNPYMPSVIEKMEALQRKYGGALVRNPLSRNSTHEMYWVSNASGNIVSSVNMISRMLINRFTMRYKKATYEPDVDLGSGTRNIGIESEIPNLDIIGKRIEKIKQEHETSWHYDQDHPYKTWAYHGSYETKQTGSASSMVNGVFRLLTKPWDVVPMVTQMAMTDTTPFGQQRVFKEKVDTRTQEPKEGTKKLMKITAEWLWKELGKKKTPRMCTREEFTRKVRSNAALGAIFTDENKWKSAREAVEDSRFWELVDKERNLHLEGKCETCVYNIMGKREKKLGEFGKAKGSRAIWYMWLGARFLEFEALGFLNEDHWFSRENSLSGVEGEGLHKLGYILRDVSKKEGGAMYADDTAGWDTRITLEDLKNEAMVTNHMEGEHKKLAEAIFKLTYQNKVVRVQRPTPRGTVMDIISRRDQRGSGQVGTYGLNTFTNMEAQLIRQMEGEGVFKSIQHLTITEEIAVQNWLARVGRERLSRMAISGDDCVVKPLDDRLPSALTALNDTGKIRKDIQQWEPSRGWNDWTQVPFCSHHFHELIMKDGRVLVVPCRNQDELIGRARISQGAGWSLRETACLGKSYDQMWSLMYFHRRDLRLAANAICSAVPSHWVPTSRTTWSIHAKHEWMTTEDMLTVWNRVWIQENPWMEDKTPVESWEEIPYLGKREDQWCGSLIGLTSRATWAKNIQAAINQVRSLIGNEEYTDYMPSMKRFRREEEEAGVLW

[7] = biological target: T2, Long-chain-fatty-acid--AMP ligase FadD28 (Mycobacterium tuberculosis, UniProt P9WQ59); test: Fluorescence polarization aasay to screen for inhibitors that compete for the binding of FadD28 to a bisubstrate Measured in Biochemical System Using Plate Reader - 2147-01_Inhibitor_Dose_CherryPick_Activity.; assay type: functional, Mycobacterium tuberculosis H37Rv
T2 sequence (P9WQ59 whole entry): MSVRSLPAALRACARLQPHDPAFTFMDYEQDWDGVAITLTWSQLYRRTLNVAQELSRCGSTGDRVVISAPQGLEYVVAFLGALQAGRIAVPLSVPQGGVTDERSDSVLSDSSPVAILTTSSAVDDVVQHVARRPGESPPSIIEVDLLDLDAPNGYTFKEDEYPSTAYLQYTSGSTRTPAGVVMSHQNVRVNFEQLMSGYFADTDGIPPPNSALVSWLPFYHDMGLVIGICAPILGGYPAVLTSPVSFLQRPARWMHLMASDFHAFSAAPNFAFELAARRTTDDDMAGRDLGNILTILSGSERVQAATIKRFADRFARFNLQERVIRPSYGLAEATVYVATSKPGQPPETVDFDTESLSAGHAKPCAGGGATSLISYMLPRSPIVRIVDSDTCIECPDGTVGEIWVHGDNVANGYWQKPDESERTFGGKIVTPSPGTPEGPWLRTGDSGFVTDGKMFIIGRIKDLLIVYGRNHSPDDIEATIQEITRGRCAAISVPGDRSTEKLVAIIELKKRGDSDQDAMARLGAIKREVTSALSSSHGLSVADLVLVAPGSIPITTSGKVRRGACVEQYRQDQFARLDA

[8] = biological target: Bifunctional protein GlmU (Mycobacterium tuberculosis, UniProt P9WMN3); test: Inhibitors of Mycobacterial Glucosamine-1-phosphate acetyl transferase (GlmU). Secondary screen.; parameters: species or system Mycobacterium tuberculosis H37Rv
Chain of Bifunctional protein GlmU (P9WMN3 whole entry): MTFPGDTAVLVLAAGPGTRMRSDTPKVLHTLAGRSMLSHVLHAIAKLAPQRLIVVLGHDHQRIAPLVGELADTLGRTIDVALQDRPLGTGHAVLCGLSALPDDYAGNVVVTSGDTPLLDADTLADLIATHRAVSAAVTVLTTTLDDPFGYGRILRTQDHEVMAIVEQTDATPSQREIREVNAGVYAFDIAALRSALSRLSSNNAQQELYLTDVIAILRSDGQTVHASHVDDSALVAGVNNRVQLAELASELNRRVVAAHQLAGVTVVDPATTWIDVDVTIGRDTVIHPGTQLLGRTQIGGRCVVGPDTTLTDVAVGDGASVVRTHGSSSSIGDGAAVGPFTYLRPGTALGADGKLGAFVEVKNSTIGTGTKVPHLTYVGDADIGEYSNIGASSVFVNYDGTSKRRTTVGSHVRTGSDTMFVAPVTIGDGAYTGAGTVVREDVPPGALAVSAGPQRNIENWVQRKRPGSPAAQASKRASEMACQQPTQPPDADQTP

[9] = biological target: T3, Probable nicotinate-nucleotide adenylyltransferase (Staphylococcus aureus (strain N315), UniProt P65502); assay type: functional, Staphylococcus aureus subsp. aureus N315; conditions: read-out: IC50_Mean;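 as to IC50 Mean: confirmatory dose-response retesting of NadD inhibitor hits first found in an ultra-high-throughput screen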
T3 sequence (P65502 whole entry): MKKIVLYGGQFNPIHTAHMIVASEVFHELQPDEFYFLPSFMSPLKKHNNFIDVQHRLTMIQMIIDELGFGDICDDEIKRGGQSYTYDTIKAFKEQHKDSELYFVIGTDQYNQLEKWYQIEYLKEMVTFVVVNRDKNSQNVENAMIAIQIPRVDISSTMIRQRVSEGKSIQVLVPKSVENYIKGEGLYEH

[10] = HepG2 cell cytotoxicity, dose response, cytotoxicity control for Shn3 inhibitor project, CellTiter-Glo, cherry-picked (AID 624134); assay type: functional, cell-based
[11] = cytotoxicity in OV-90 ovarian cancer cells, dose response, PAX8 inhibitor project, cell-based, plate reader, dry powder, SA8 (AID 743149); assay type: functional
[12] = system: Streptococcus sp. 'group A'; test: growth inhibition of control SK(-) GAS strain, dose response, counter-screen for streptokinase expression inhibitor project, luminescence, kanamycin, BacTiterGlo, confirmation (AID 1900); assay type: functional, organism-based
[13] = PAX2 cell-based inhibition, dose response, selectivity assay for PAX8 inhibitor project, plate reader, dry powder samples (AID 743048); assay type: functional;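 also: HEK293 cells carrying a WT1 promoter luciferase reporter driven by expressed Pax2; potency is for inhibition of Pax2 driven reporter signal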
[14] = cytotoxicity in OVCAR4 cells, dose response, cytotoxicity control for PAX8 inhibitor project, cell-based, plate reader, dry powder, SA11 (AID 743150); assay type: functional; conditions: OVCAR-4
[15] = PAX5 activity inhibitors, dose response, selectivity assay for PAX8 inhibitor project, cell-based, plate reader, dry powder samples (AID 743047); assay type: functional;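 also: HEK293 cells carrying a Pax5 driven CD19 promoter luciferase reporter; potency of inhibitors that lower reporter luminescence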
[16] = cytotoxicity toward NIH3T3 fibroblasts, dose response, counter-screen, cell-based, ATP luminescence, mouse fibroblasts (AID 2010); assay type: functional;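 also: cells exposed to compound for about 90 hours before reading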
[17] = biological target: T3, Probable nicotinate-nucleotide adenylyltransferase; assay type: functional, Staphylococcus aureus subsp. aureus N315
[18] = cytotoxicity in COV362 ovarian cancer cells, dose response, cytotoxicity control for PAX8 inhibitor project, cell-based, plate reader, dry powder, SA12 (AID 743144); assay type: functional
Streptococcus = test: Group A Streptococcus viability loss, dose response, counter-screen for streptokinase expression inhibitor project, luminescence, BacTiterGlo (AID 1915); assay type: functional, organism-based;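 also: potency for reduction of bacterial viability or growth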
[19] = cytotoxicity dependent on PAX8, dose response, cell-based, plate reader, dry powder (AID 743049); assay type: functional
[20] = control 3'UTR Renilla luciferase suppression, dose response, counter-screen for Shn3 inhibitor project, cell-based, Clone20-Shn3RL, cherry-picked (AID 624133); assay type: functional
Paired box protein Pax-8 = Paired box protein Pax-8 (Homo sapiens, UniProt Q06710); test: inhibitors of PAX8-driven TPO luciferase reporter, dose response, RMG-I cells, cherry-pick (AID 687027); assay type: functional, cell-based;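 also: luciferase reporter driven by Pax8 target thyroperoxidase promoter measured by SteadyGlo luminescence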
Chain of Paired box protein Pax-8 (Q06710 whole entry): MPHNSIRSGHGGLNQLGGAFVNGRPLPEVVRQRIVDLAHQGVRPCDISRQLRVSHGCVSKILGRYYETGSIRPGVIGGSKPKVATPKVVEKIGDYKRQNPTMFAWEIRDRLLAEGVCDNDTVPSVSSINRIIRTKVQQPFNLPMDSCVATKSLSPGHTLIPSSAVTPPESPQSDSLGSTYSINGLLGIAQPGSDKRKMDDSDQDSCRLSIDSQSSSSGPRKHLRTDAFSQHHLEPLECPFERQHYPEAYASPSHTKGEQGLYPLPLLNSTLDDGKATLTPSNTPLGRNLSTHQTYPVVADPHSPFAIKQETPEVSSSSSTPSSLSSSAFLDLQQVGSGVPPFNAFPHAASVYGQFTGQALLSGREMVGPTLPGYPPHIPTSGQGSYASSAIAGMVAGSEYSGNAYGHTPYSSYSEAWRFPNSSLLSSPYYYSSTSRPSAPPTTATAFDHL

[21] = NIH:OVCAR-3 ovarian cancer cell cytotoxicity, dose response, PAX8 inhibitor project, plate reader, dry powder samples (AID 743044); assay type: functional, cell-based
[22] = cytotoxicity in COV434 cells, dose response, cytotoxicity control for PAX8 inhibitor project, cell-based, plate reader, dry powder, SA7 (AID 743145); assay type: functional
[23] = Shn3 3'UTR reporter inhibitors, dose response, cell-based, Clone20 osteoblasts, firefly luciferase, cherry-picked (AID 624132); assay type: functional;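 also: firefly luciferase luminescence from reporter carrying the Shn3 3'UTR in osteoblasts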
cells [24] = assay type: functional, cell-based
cells [25] = assay type: functional, cell-based; remark: listed apart in the source
[26] = inhibitors of intracellular T. cruzi replication, confirmation, NIH3T3 host cells, beta-gal luminescence (AID 2044); assay type: functional, cell-based;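 also: intracellular parasites grown in NIH/3T3 mouse fibroblasts as host cells; luminescent beta-galactosidase reporter signal from transgenic T. cruzi replicating inside host cells; inhibitors lower the luminescence signal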
[27] = IGROV1 ovarian cancer cell cytotoxicity, dose response, PAX8 inhibitor project, plate reader, dry powder samples (AID 743043); assay type: functional, cell-based; conditions: IGROV-1
[28] = A2780 ovarian cancer cell cytotoxicity, dose response, cytotoxicity control, plate reader, dry powder samples (AID 743046); assay type: functional, cell-based
[29] = biological target: T4, Type-1 angiotensin II receptor (Homo sapiens, UniProt P30556); test: AT1 receptor agonists, dose response, selectivity assay for APJ receptor agonist project, cell-based, uHTS hits (AID 488865); assay type: functional;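 also: beta-arrestin recruitment to AT1 measured by enzyme fragment complementation luminescence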
T4 sequence (P30556 whole entry): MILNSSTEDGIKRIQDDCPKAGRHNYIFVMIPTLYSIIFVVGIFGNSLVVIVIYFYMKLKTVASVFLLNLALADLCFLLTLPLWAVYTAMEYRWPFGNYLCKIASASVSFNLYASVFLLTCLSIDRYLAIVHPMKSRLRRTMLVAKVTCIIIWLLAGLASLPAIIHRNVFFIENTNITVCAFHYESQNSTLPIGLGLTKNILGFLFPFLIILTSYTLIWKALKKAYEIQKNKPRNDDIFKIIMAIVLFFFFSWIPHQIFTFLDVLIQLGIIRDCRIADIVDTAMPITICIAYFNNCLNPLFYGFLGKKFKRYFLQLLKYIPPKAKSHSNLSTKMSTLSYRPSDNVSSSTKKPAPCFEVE

[30] = HIV Env cell-cell fusion inhibitors, dose response, HIV entry, plate reader, dry powder (AID 687023); assay type: functional, cell-based
[31] = luciferase signal loss, tTA control fusion, HeLa F-luc tTA cells, dry powder, counter-screen for HIV Env fusion inhibitor project, dose response (AID 687021); assay type: functional, cell-based

Chain of Induced myeloid leukemia cell differentiation protein Mcl-1 (Q07820 whole entry): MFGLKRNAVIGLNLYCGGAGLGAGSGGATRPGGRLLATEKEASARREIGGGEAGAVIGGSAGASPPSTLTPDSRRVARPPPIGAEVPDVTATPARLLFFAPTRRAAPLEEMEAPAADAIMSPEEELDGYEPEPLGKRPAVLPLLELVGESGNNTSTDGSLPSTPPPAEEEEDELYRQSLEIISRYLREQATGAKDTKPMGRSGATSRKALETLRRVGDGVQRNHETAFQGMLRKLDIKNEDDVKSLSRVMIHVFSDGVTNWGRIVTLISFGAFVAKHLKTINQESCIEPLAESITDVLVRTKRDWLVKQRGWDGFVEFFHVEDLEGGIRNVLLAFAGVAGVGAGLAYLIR

COc1ccc(C(=O)Nc2ccc(N3CCCC3)cc2)cc1
active: IC50 [1] 3.44 µM | IC50 (Bcl-2-like protein 10) 41.9 µM | IC50 [2] 16.2 µM

[O-][Cl+3]([O-])([O-])[O-].c1ccc(-c2cc(-c3ccccc3)[n+](-c3ccccc3)c(-c3ccccc3)c2)cc1
active: IC50 [4] 1.06 µM | IC50 [5] 1.77 µM | AC50 (INS1) 2.59 µM
inactive: IC50 [3] 14.3 µM

O=C(Nc1cccc(Oc2ccc(C(=O)O)c(C(=O)O)c2)c1)c1ccc(-c2ccccc2)cc1
active: AC50 (Caspase-6) 15.7 µM | IC50 (Aminopeptidase N) 44.7 µM | IC50 (Genome polyprotein) 20.5 µM | AC50 [7] 82.4 µM | IC50 [8] 147 µM | IC50 [1] 4.44 µM
inactive: IC50 [6] > 20 µM

Cc1cc(C)c2sc(NNC(=O)c3ccc(S(=O)(=O)N4CCc5ccccc5C4)cc3)nc2c1
inactive: EC50 [29] > 100 µM
active: IC50 [9] 42.2 µM | AC50 [10] 33.1 µM | AC50 [11] 20.8 µM | EC50 [12] 1.29 µM | AC50 [13] 3.1 µM | AC50 [14] 43.4 µM | AC50 [15] 4.85 µM | EC50 [16] 1.82 µM | IC50 [17] 7.44 µM | AC50 [18] 19.2 µM | EC50 (Streptococcus) 3.44 µM | AC50 [19] 10.3 µM | AC50 [20] 1.35 µM | AC50 (Paired box protein Pax-8) 2.27 µM | AC50 [21] 6.31 µM | AC50 [22] 12.4 µM | AC50 [23] 1.8 µM | EC50 (cells [24]) 41.8 µM | AC50 (INS1) 1.36 µM | EC50 [26] 1.22 µM | AC50 [27] 8.92 µM | AC50 [28] 6.67 µM
> 350 µM (not active): EC50 (cells [25])

CCOc1ccc(S(=O)(=O)NCc2ccccn2)cc1
inactive: AC50 [30] > 70 µM | AC50 [31] > 70 µM
